Source: ChEMBL document CHEMBL2176970, “Discovery and optimization of a series of 3-(3-phenyl-3H-imidazo[4,5-b]pyridin-2-yl)pyridin-2-amines: orally bioavailable, selective, and potent ATP-independent Akt inhibitors” (J Med Chem, 2012)
Active and inactive are the calls of the source. No cut-off for these calls is given here.

Columns and labels:
[1] = target: Insulin receptor (Homo sapiens) (UniProt P06213); assay: Inhibition of INSR using fluorescent labelled substrate at 5 uM by caliper method
[2] = target: Fibroblast growth factor receptor 1 (Homo sapiens) (UniProt P11362); assay: Inhibition of FGFR1 using fluorescent labelled substrate at 5 uM by caliper method
[3] = target: Serine/threonine-protein kinase PAK 2 (Homo sapiens) (UniProt Q13177); assay: Inhibition of PAK2 using fluorescent labelled substrate at 5 uM by caliper method
[4] = target: Mitogen-activated protein kinase 3 (Homo sapiens) (UniProt P27361); assay: Inhibition of MAPK3 using fluorescent labelled substrate at 5 uM by caliper method
[5] = target: Ribosomal protein S6 kinase alpha-5 (Homo sapiens) (UniProt O75582); assay: Inhibition of MSK1 using fluorescent labelled substrate at 5 uM by caliper method
[6] = target: T1, RAC-alpha serine/threonine-protein kinase (Homo sapiens, UniProt P31749); assay: Inhibition of Akt1 in human A2780 cells assessed as phosphorylation of Akt at S473 after 2 hrs by Western Blot analysis; assay type: cell-based
[7] = target: T1, RAC-alpha serine/threonine-protein kinase; assay: Inhibition of Akt1 in human AN3CA cells assessed as phosphorylation of Akt at S473 after 2 hrs by Western Blot analysis; assay type: cell-based, AN3-CA
[8] = target: T1, RAC-alpha serine/threonine-protein kinase; assay: Inhibition of Akt 1 in human AN3CA cells assessed as phosphorylation of Akt at T308 after 2 hrs by Western Blot analysis; assay type: cell-based, AN3-CA
[9] = target: T1, RAC-alpha serine/threonine-protein kinase; assay: Inhibition of Akt1 in human A2780 cells assessed as phosphorylation PRAS40 at T246 after 2 hrs by Western Blot analysis; assay type: cell-based
[10] = target: T2, RAC-gamma serine/threonine-protein kinase (Homo sapiens, UniProt Q9Y243); assay: Binding affinity to Akt3 (1 to 479) expressed in Sf9 cells assessed as change in melting temperature at 15 uM
[11] = target: RAC-beta serine/threonine-protein kinase (Homo sapiens, UniProt P31751); assay: Inhibition of Akt2 (1 to 481) expressed in Sf9 cells using biotin-GRPRTSSFAEG as substrate after 20 mins by Alpha-screen assay
[12] = target: T2, RAC-gamma serine/threonine-protein kinase; assay: Inhibition of Akt3 (1 to 479) expressed in Sf9 cells using biotin-GRPRTSSFAEG as substrate after 20 mins by Alpha-screen assay
[13] = target: T3, Cytochrome P450 1A2 (Homo sapiens, UniProt P05177); assay: Inhibition of CYP1A2 in human liver microsomes using phenacetin as substrate after 10 mins; assay type: ADME, Microsome
T3 sequence (P05177 whole entry): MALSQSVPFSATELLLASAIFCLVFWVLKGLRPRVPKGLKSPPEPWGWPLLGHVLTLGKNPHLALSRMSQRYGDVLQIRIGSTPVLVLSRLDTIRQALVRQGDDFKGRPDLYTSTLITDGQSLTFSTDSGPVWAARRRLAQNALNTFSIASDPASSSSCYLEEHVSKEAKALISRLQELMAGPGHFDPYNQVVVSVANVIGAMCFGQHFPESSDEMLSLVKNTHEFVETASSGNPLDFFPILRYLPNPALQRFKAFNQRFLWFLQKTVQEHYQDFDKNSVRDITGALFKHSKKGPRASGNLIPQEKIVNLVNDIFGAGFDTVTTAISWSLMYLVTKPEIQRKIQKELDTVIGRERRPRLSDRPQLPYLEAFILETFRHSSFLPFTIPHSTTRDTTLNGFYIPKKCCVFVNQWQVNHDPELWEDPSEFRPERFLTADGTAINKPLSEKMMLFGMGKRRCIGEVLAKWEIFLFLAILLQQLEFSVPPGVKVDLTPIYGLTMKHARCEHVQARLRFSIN

[14] = target: Cytochrome P450 2C19 (Homo sapiens, UniProt P33261); assay: Inhibition of CYP2C19 in human liver microsomes using S-mephenytoin as substrate after 10 mins; assay type: ADME, Microsome
[15] = target: T4, Cytochrome P450 2C8 (Homo sapiens, UniProt P10632); assay: Inhibition of CYP2C8 in human liver microsomes using paclitaxel as substrate after 10 mins; assay type: ADME, Microsome
T4 sequence (P10632 whole entry): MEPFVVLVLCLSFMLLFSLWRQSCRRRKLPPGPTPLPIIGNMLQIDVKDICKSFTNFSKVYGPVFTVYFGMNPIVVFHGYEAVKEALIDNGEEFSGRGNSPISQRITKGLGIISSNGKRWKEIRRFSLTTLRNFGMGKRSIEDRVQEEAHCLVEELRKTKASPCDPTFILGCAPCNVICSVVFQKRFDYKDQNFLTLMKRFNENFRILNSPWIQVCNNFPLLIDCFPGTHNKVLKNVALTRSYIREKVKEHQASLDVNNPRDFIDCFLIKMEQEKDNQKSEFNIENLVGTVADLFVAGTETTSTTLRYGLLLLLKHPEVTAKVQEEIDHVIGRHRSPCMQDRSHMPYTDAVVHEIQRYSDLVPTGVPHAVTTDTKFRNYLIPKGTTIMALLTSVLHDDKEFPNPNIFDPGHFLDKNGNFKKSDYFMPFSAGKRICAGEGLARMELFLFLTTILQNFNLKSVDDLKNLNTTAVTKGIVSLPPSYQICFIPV

[16] = target: Cytochrome P450 2C9 (Homo sapiens, UniProt P11712); assay: Inhibition of CYP2C9 in human liver microsomes using tolbutamide as substrate after 10 mins; assay type: ADME, Microsome
[17] = target: Cytochrome P450 2D6 (Homo sapiens, UniProt P10635); assay: Inhibition of CYP2D6 in human liver microsomes using bufuralol as substrate after 10 mins; assay type: ADME, Microsome
[18] = target: Cytochrome P450 3A4 (Homo sapiens, UniProt P08684); assay: Inhibition of CYP3A4 in human liver microsomes using midazolam as substrate after 10 mins; assay type: ADME, Microsome
[19] = Half life in human liver microsomes at 1 uM by LC/MS/MS; assay type: ADME, Microsome
[20] = target: Cyclin-dependent kinase 1/cyclin B1 (Homo sapiens) (UniProt P06493+P14635); assay: Inhibition of CDK1/cyclinB using fluorescent labelled substrate at 5 uM by caliper method; assay type: protein-complex assay
[21] = target: Serine/threonine-protein kinase Sgk3 (Homo sapiens) (UniProt Q96BR1); assay: Inhibition of SGK3 using fluorescent labelled substrate at 5 uM by caliper method
[22] = target: Serine/threonine-protein kinase Sgk1 (Homo sapiens) (UniProt O00141); assay: Inhibition of SGK1 using fluorescent labelled substrate at 5 uM by caliper method
[23] = target: Ribosomal protein S6 kinase alpha-2 (Homo sapiens) (UniProt Q15349); assay: Inhibition of RSK3 using fluorescent labelled substrate at 5 uM by caliper method
[24] = target: Ribosomal protein S6 kinase alpha-1 (Homo sapiens) (UniProt Q15418); assay: Inhibition of RSK1 using fluorescent labelled substrate at 5 uM by caliper method
[25] = target: 3-phosphoinositide-dependent protein kinase 1 (Homo sapiens) (UniProt O15530); assay: Inhibition of PDK1 using fluorescent labelled substrate at 5 uM by caliper method
[26] = target: Ribosomal protein S6 kinase beta-1 (Homo sapiens) (UniProt P23443); assay: Inhibition of P70S6KB1 using fluorescent labelled substrate at 5 uM by caliper method
[27] = target: Ribosomal protein S6 kinase alpha-6 (Homo sapiens) (UniProt Q9UK32); assay: Inhibition of RSK4 using fluorescent labelled substrate at 5 uM by caliper method
Ribosomal protein S6 kinase alpha-6 (Homo sapiens), sequence (Q9UK32 whole entry, looked up): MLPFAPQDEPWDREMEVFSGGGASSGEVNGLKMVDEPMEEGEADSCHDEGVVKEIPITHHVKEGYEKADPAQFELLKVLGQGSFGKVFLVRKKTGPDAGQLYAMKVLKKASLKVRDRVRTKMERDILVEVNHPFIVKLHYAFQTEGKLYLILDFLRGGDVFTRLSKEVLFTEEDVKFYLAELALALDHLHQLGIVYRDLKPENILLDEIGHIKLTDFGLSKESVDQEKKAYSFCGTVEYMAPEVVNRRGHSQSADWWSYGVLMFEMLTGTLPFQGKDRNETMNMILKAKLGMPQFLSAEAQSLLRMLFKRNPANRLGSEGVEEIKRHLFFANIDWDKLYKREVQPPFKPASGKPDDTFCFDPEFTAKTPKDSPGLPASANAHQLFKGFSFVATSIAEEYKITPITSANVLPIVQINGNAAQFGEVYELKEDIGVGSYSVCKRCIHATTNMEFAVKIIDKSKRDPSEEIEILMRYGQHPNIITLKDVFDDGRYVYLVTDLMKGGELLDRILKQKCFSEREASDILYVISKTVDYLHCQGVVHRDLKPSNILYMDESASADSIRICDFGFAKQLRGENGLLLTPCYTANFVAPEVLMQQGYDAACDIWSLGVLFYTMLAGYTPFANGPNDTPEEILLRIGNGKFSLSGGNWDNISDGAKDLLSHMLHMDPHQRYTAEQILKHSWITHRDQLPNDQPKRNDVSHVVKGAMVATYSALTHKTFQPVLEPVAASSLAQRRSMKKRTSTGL

T1 sequence (P31749 whole entry): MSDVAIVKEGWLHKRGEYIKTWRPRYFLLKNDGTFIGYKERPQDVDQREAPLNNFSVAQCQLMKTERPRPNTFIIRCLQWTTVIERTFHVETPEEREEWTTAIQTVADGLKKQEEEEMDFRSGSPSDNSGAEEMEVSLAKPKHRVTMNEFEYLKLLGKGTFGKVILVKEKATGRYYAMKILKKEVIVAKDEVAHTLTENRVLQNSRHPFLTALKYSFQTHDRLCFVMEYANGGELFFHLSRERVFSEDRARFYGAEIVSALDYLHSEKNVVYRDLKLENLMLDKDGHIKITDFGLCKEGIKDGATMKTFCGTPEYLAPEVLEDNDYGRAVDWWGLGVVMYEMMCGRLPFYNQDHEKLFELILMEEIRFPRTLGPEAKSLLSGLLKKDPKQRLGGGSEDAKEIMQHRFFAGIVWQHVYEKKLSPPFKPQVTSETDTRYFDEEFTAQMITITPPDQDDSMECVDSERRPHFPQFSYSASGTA
T2 sequence (Q9Y243 whole entry): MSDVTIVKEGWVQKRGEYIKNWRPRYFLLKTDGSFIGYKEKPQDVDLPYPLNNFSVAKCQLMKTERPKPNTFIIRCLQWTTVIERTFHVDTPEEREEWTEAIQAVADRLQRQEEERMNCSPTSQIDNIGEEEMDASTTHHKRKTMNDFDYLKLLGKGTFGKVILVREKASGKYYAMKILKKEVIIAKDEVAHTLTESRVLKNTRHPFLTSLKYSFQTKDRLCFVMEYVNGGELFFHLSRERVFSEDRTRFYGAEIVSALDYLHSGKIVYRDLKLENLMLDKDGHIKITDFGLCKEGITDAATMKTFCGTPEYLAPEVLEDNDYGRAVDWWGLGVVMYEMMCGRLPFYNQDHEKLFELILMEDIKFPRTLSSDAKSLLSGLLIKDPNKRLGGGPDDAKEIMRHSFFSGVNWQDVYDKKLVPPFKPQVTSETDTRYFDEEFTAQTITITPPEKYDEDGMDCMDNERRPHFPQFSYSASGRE
Fibroblast growth factor receptor 1 (Homo sapiens), sequence (P11362 22-822 limits assumed): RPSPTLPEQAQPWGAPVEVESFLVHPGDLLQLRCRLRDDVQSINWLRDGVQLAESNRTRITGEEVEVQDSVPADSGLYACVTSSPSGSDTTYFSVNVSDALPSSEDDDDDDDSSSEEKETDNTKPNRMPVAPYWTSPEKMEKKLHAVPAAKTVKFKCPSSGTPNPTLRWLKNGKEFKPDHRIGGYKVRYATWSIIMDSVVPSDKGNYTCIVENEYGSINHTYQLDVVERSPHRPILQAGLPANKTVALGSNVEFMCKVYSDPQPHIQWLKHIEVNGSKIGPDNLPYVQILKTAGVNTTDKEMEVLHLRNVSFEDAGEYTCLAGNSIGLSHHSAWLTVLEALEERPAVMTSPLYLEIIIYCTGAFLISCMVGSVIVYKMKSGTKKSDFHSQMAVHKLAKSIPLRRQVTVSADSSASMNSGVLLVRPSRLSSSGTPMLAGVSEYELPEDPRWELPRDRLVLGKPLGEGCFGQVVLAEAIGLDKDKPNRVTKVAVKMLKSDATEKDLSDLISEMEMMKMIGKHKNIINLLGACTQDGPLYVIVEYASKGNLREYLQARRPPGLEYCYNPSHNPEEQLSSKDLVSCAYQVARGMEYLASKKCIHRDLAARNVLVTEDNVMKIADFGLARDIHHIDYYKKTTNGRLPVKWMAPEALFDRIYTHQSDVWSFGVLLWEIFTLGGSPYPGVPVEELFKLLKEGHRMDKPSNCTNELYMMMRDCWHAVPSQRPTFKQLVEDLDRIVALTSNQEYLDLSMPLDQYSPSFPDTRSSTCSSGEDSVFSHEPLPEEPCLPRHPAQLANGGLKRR
Cytochrome P450 2D6, sequence (P10635 whole entry): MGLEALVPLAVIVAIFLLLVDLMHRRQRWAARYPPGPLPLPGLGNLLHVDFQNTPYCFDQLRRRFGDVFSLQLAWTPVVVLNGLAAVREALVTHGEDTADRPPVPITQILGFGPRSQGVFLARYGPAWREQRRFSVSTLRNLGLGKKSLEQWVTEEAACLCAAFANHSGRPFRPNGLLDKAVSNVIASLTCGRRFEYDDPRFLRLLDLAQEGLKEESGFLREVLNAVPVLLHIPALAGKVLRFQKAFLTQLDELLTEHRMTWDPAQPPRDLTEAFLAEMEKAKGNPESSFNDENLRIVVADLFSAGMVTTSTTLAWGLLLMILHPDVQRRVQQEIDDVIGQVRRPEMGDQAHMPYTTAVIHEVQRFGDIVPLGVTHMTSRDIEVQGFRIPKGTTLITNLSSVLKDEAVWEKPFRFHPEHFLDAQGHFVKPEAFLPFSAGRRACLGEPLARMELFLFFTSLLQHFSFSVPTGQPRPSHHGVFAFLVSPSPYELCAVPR
3-phosphoinositide-dependent protein kinase 1 (Homo sapiens), sequence (O15530 whole entry): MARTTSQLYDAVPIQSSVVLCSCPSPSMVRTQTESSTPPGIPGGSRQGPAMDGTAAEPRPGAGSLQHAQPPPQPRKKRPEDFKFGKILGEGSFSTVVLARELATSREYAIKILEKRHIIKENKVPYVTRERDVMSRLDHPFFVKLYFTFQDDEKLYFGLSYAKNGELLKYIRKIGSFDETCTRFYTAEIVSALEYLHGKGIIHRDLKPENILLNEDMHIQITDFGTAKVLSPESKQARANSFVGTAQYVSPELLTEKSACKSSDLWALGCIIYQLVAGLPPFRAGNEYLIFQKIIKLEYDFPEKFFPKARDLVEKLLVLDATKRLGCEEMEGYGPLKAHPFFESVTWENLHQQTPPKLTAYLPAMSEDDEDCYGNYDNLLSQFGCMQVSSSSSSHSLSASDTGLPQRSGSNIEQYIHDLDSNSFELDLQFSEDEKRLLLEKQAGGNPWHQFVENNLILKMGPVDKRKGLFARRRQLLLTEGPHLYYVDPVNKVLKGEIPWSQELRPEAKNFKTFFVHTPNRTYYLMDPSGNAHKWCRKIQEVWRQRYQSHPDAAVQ
Ribosomal protein S6 kinase alpha-5 (Homo sapiens), sequence (O75582 whole entry, looked up): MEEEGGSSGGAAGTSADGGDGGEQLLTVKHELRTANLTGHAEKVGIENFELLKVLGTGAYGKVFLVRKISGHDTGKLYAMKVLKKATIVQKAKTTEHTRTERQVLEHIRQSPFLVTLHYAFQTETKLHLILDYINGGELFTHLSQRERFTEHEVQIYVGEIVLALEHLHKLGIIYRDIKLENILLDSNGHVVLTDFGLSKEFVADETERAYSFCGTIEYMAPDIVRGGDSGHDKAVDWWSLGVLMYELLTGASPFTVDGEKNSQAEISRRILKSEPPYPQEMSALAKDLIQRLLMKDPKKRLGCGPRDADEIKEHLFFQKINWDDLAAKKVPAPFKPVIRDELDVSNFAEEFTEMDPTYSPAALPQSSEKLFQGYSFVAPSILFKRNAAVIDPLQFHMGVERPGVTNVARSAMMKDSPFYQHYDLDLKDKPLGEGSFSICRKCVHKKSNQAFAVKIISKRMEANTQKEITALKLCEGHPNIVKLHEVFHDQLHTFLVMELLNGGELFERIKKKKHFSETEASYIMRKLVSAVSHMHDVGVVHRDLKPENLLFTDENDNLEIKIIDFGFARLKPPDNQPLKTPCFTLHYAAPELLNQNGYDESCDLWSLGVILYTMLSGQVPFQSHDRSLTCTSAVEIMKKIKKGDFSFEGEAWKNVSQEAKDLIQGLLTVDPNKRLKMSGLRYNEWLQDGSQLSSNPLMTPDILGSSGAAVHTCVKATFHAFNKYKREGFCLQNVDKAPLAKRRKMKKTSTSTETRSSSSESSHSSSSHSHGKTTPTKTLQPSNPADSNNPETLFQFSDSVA
Cytochrome P450 3A4, sequence (P08684 whole entry): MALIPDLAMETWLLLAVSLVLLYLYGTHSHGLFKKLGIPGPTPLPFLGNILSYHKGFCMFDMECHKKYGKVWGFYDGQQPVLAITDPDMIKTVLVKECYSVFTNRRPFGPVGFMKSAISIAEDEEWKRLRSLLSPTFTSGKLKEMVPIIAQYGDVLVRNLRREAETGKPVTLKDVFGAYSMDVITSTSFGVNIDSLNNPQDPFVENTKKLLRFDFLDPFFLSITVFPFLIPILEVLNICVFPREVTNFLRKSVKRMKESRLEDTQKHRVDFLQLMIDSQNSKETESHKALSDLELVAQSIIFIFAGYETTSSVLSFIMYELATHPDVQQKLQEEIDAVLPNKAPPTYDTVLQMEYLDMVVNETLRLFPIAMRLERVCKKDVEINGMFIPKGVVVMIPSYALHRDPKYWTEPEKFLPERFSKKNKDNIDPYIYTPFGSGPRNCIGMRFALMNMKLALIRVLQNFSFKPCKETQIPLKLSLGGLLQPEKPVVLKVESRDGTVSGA

Row | Compound | inhibition [1] [%] | inhibition [2] [%] | inhibition [3] [%] | inhibition [4] [%] | inhibition [5] [%] | IC50 [6] [µM] | IC50 [7] [µM] | IC50 [8] [µM] | IC50 [9] [µM] | deltaTm [10] | IC50 [11] [µM] | IC50 [12] [µM] | IC50 [13] [µM] | IC50 [14] [µM] | IC50 [15] [µM] | IC50 [16] [µM] | IC50 [17] [µM] | IC50 [18] [µM] | half-life at 1 µM [19] [min] | inhibition [20] [%] | also measured
1 | Nc1ncccc1-c1nc2cccnc2n1-c1ccc(CC(=O)Nc2ccccc2)cc1 | > 25 | > 25 | > 25 | > 25 | > 25 | 0.21 | 2.5 | > 10 | > 10 | inactive | 0.7 | 22 | > 10 | > 10 | > 10 | > 10 | > 10 | > 10 | 47.6 | > 25 | inhibition [21]: > 25%; inhibition [22]: > 25%; inhibition [23]: > 25%; inhibition [24]: > 25%; inhibition [25]: > 25%; inhibition [26]: > 25%; inhibition [27]: > 25%
2 | Nc1ncccc1-c1nc2cccnc2n1-c1ccc(CNC(=O)c2ccccc2)cc1 | > 25 | > 25 | > 25 | > 25 | > 25 | 0.41 | 5.6 | > 10 | > 10 | inactive | 0.66 | 24 | > 10 | > 10 | > 10 | > 10 | > 10 | > 10 | 60 | > 25 | inhibition [21]: > 25%; inhibition [22]: > 25%; inhibition [23]: > 25%; inhibition [24]: > 25%; inhibition [25]: > 25%; inhibition [26]: > 25%; inhibition [27]: > 25%
